In patent US20140213538A1, “LYSOPHOSPHATIDIC ACID RECEPTOR ANTAGONISTS” (InterMune, Inc., priority 2013, published 2014) one finds EC50 and IC50 data, which are given here for 34 compounds.

Structures are written as SMILES.

Holding throughout (type): cell-based
For test [1], the target named is T1, LPA1 (Homo sapiens, UniProt Q92633). Briefly: LPA1 Migration Assay (Oris). On the set-up: host or cells: primary fibroblasts (lung, dermal), HFL-1, 3T3 and CHO cells expressing LPA1R. Particulars: read-out: Cell Migration EC50. Put shortly: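 Oris exclusion-zone migration of LPA1R-expressing cells (primary lung/dermal fibroblasts, HFL-1, 3T3, CHO), Cell Tracker Green-loaded and serum-starved 12-24 h, toward LPA or serum. Fixed cells in the detection zone were counted by high-content imaging, and cell number vs. concentration was fitted to a 4-parameter logistic.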

Test [2] has as its target T2, LPA/S1P GPCR of interest (Homo sapiens, UniProt Q92633).
T2 construct: host or cells: CHO
Briefly: Beta-Arrestin based assay (PathHunter). Put shortly:
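EA Parental CHO cells (DiscoverX) were transfected with FuGENE (Roche) using CMV promoter-driven DNA constructs encoding the LPA/S1P GPCR of interest fused to a ProLink tag. Beta-arrestin recruitment in agonist mode was assessed 24-48 hrs later with PathHunter kits. Tests ran in quadruplicate in white 384 well plates, and end point luminescence was fit to a 4 parameter logistic function.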

For test [3], the target named is T1, LPA1. Description: Ca Flux LPA1 assay. On the set-up: the full-length cDNA for human LPA1 is obtained by PCR of the reverse transcription reaction; expressed in transfected cells.

T2 sequence (Q92633 whole entry): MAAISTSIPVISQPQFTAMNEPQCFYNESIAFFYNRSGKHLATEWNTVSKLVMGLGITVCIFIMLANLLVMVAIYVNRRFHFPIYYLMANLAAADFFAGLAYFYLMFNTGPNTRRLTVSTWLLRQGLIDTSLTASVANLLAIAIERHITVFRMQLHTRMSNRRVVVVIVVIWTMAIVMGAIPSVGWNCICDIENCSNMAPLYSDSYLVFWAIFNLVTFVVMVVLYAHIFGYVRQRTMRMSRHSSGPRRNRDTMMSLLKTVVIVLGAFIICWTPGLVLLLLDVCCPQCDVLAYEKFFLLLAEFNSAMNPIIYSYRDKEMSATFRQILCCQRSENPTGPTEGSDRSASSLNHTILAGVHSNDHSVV
T1 sequence (Q92633 whole entry): as above

One may read the IC50 as the midpoint of a concentration-inhibition curve. For `C[C@@H](OC(=O)Nc1c(-c2ccc(-c3cc(F)c(Oc4ncccc4C(=O)O)c(F)c3)cc2)cnn1C)c1ccccc1Cl` [IT450], the EC50 in test [1] and in test [2] was less than 0.05 µM each time. In addition, in test [3], the IC50 fell in the range of 0.05 to 0.5 µM.
With `Cc1noc(-c2ccc(-c3ccc(Oc4ccccc4C(=O)O)nc3)cc2)c1NC(=O)O[C@H](C)c1ccccc1` [IT345], the figures for the EC50 in test [1] and in test [2] were 0.05 to 0.5 µM and less than 0.05 µM, respectively. In addition, the IC50 in test [3] was less than 0.05 µM.
As to `Cc1noc(-c2ccc(-c3cc(F)c(Oc4nccnc4C(=O)O)c(F)c3)cc2)c1NC(=O)O[C@H](C)c1ccccc1` [IT305], the EC50 in test [1] and in test [2] was less than 0.05 µM each time. This compound returned a concentration for half-maximal inhibition (IC50) in test [3] of less than 0.05 µM.
Turning to `Cc1noc(-c2ccc(-c3ccc(Oc4cccnc4C(=O)O)c(F)c3)cc2)c1NC(=O)O[C@H](C)c1ccccc1` [IT424], the EC50 in test [1] and in test [2] was less than 0.05 µM throughout. In addition, the IC50 in test [3] was less than 0.05 µM.
With `Cc1noc(-c2ccc(-c3ccc(C(F)(F)C(=O)O)cc3)cc2)c1NC(=O)O[C@H](C)c1ccccc1` [IT123], the EC50 is 0.05 to 0.5 µM in test [1] and less than 0.05 µM in test [2]. Moreover, the IC50 in test [3] is 0.05 to 0.5 µM.
For the compound `Cc1c(C2(C(=O)O)CC2)sc2cc(C#Cc3cnn(C)c3NC(=O)O[C@H](C)c3ccccc3)sc12` [IT107], the results for the EC50 in test [1] and in test [2] were 0.05 to 0.5 µM and less than 0.05 µM, respectively. The compound further showed an IC50 in test [3] of less than 0.05 µM.
Turning to `Cc1noc(-c2ccc(-c3ccc(Oc4cccnc4C(=O)O)cc3)cc2)c1NC(=O)O[C@H](C)c1ccccc1` [IT229], the figures for the EC50 in test [1] and in test [2] were 0.05 to 0.5 µM and less than 0.05 µM, respectively. Besides, the IC50 in test [3] lay within 0.05 to 0.5 µM.
Regarding `Cc1noc(-c2ccc(-c3ccc(Oc4c(C(=O)O)nn(C)c4C)cc3)cc2)c1NC(=O)O[C@H](C)c1ccccc1` [IT484], the EC50 is 0.05 to 0.5 µM in test [1] and less than 0.05 µM in test [2]. This compound yielded an IC50 in test [3] of less than 0.05 µM.
`C[C@@H](OC(=O)Nc1c(-c2cc3sc(-c4ccc(C5(C(=O)O)CC5)cc4)cc3s2)cnn1C)c1ccccc1` [IT119]: the EC50 in test [1] is 0.05 to 0.5 µM; in test [2], less than 0.05 µM. This compound came in with a half-inhibitory concentration (IC50) in test [3] greater than 0.5 µM.
Regarding `Cc1nsc(-c2ccc(-c3cc(F)c(Oc4ccccc4C(=O)O)c(F)c3)cc2)c1NC(=O)O[C@H](C)c1ccccc1` [IT448], the results for the EC50 in test [1] and in test [2] were 0.05 to 0.5 µM and less than 0.05 µM, respectively. The compound also showed an IC50 in test [3] of 0.05 to 0.5 µM.
For `Cc1noc(-c2ccc(-c3cc(F)c(Oc4nc5ccccc5cc4C(=O)O)c(F)c3)cc2)c1NC(=O)O[C@H](C)c1ccccc1` [IT481], the EC50 in test [1] and in test [2] was less than 0.05 µM in each case. In addition, the half-inhibitory concentration (IC50) in test [3] was greater than 0.5 µM.
On to `Cc1noc(-c2ccc(-c3cc(F)c(OC4(C(=O)O)CC4)c(F)c3)cc2)c1NC(=O)O[C@H](C)c1ccccc1` [IT304], for which the EC50 was 0.05 to 0.5 µM in test [1] and less than 0.05 µM in test [2]. The compound also returned an IC50 in test [3] of less than 0.05 µM.
`CCC(C)OC(=O)Nc1c(C)noc1-c1ccc(-c2ccc(Oc3ccccc3C(=O)O)cc2)cc1` (single isomer, unassigned) [IT494]: the EC50 was 0.05 to 0.5 µM in test [1] and less than 0.05 µM in test [2]. In addition, in test [3], the 50% inhibitory concentration (IC50) is less than 0.05 µM.
For `Cc1nnn(-c2ccc(-c3cc(F)c(Oc4ncccc4C(=O)O)c(F)c3)cc2)c1NC(=O)O[C@H](C)c1ccccc1` [IT307], the results for the EC50 in test [1] and in test [2] were 0.05 to 0.5 µM and less than 0.05 µM, respectively. In addition, the IC50 in test [3] is less than 0.05 µM.
As for `Cc1noc(-c2cc(F)c(-c3cc(F)c(Oc4ncccc4C(=O)O)c(F)c3)cc2F)c1NC(=O)O[C@H](C)c1ccccc1` [IT474], the EC50 in test [1] and in test [2] was less than 0.05 µM throughout. For the same compound, the IC50 in test [3] is less than 0.05 µM.
`C[C@@H](OC(=O)Nc1c(-c2ccc(-c3ccc(C4(C(=O)O)CC4)c4c3CCC4)cc2)cnn1C)c1ccccc1` [IT112]: the EC50 was 0.05 to 0.5 µM in test [1] and less than 0.05 µM in test [2]. The same compound gave an IC50 in test [3] of less than 0.05 µM.
Take `Cc1nnn(-c2cc(F)c(-c3ccc(C4(C(=O)O)CCOCC4)cc3)cc2F)c1NC(=O)O[C@H](C)c1ccccc1` [IT030]: the EC50 in test [1] and in test [2] was greater than 0.5 µM in each case. Besides, the IC50 in test [3] was greater than 0.5 µM.
As to `Cc1noc(-c2ccc(-c3ccc(Oc4c(C)nn(C)c4C(=O)O)cc3)cc2)c1NC(=O)O[C@H](C)c1ccccc1` [IT483], the EC50 in test [1] was 0.05 to 0.5 µM; in test [2], less than 0.05 µM. In test [3], the half-maximal inhibitory concentration (IC50) fell in the range of 0.05 to 0.5 µM.
`C[C@@H](OC(=O)Nc1c(-c2ccc(-c3ccc(Oc4ccccc4C(=O)O)c(F)c3)cc2)cnn1C)c1ccccc1` [IT446]: the EC50 in test [1] and in test [2] was less than 0.05 µM in each case. For the same compound, the IC50 in test [3] is less than 0.05 µM.
In the case of `C[C@@H](OC(=O)Nc1c(C#Cc2cc3sc(C4(c5nn[nH]n5)CC4)cc3s2)cnn1C)c1ccccc1` [IT104], the EC50 in test [1] was 0.05 to 0.5 µM; in test [2], less than 0.05 µM. Further, in test [3], the concentration for half-maximal inhibition (IC50) was less than 0.05 µM.
As to `Cc1nsc(-c2ccc(-c3cc(F)c(Oc4ncccc4C(=O)O)c(F)c3)cc2)c1NC(=O)O[C@H](C)c1ccccc1` [IT451], the EC50 in test [1] and in test [2] was less than 0.05 µM in each case. Also, the IC50 in test [3] is 0.05 to 0.5 µM.
Consider `C[C@@H](OC(=O)Nc1c(-c2ccc(-c3cc(F)c(Oc4ccccc4C(=O)O)c(F)c3)cc2)cnn1C)c1ccccc1` [IT425], for which the EC50 in test [1] and in test [2] was less than 0.05 µM each time. In addition, in test [3], the IC50 was less than 0.05 µM.
In the case of `C[C@@H](OC(=O)Nc1c(-c2cc3sc(-c4ccc(C5(C(=O)O)CC5)cc4F)cc3s2)cnn1C)c1ccccc1` [IT245], the EC50 in test [1] is 0.05 to 0.5 µM; in test [2], less than 0.05 µM. For the same compound, the IC50 in test [3] was 0.05 to 0.5 µM.
Consider `C[C@@H](OC(=O)Nc1c(-c2cc3sc(-c4cc(F)c(C5(C(=O)O)CC5)c(F)c4)cc3s2)cnn1C)c1ccccc1` [IT261], for which the EC50 in test [1] was 0.05 to 0.5 µM; in test [2] it was less than 0.05 µM. Further, the IC50 in test [3] is greater than 0.5 µM.
Taken in the same sequence, the figures for `C[C@@H](OC(=O)Nc1sncc1C#Cc1cc2sc(C3(C(=O)O)CC3)cc2s1)c1ccccc1` [IT108] were greater than 0.5 µM, greater than 0.5 µM and greater than 0.5 µM.
Turning to `Cc1noc(-c2ccc(-c3cc(F)c(Oc4ccncc4C(=O)O)c(F)c3)cc2)c1NC(=O)O[C@H](C)c1ccccc1` [IT300], the EC50 in test [1] and in test [2] was less than 0.05 µM throughout. In test [3], the IC50 is less than 0.05 µM.
For the compound `C[C@@H](OC(=O)Nc1c(C#Cc2ccc(Oc3ccccc3C(=O)O)cc2)cnn1C)c1ccccc1` [IT301], the values for the EC50 in test [1] and in test [2] were 0.05 to 0.5 µM and less than 0.05 µM, respectively. This compound also gave an IC50 in test [3] of less than 0.05 µM.
Turning to `C[C@@H](OC(=O)Nc1c(-c2cc(F)c(-c3cc4sc(C5(C(=O)O)CC5)cc4s3)cc2F)cnn1C)c1ccccc1` [IT121], the EC50 in test [1] and in test [2] was less than 0.05 µM each time. The concentration for half-maximal inhibition (IC50) in test [3] is greater than 0.5 µM.
Regarding `Cc1noc(-c2ccc(-c3ccc(C4(C(=O)O)CC4(F)F)cc3)cc2)c1NC(=O)O[C@H](C)c1ccccc1` (stereo partly drawn) [IT172], the EC50 in test [1] and in test [2] was less than 0.05 µM throughout. For the same compound, the IC50 in test [3] lay in the range of 0.05 to 0.5 µM.
In the case of `C[C@@H](OC(=O)Nc1c(-c2ccc(-c3ccc(Oc4ccccc4C(=O)O)cc3)cc2)cnn1C)c1ccccc1` [IT198], the results for the EC50 in test [1] and in test [2] were 0.05 to 0.5 µM and less than 0.05 µM, respectively. This compound also came in with an IC50 in test [3] of less than 0.05 µM.
In the case of `COC(=O)C1(c2cc3sc(C#Cc4cnn(C)c4NC(=O)O[C@H](C)c4ccccc4)cc3s2)CC1` [IT479], the EC50 is greater than 0.5 µM in test [1] and less than 0.05 µM in test [2]. Besides, the IC50 in test [3] lay within 0.05 to 0.5 µM.
On the same counts, the results for `Cc1cc(C2(C(=O)O)CC2)c(F)cc1-c1cc2sc(-c3nnn(C)c3NC(=O)O[C@H](C)c3ccccc3)cc2s1` [IT341] are 0.05 to 0.5 µM, less than 0.05 µM and 0.05 to 0.5 µM.
On the same counts, the results for `Cc1noc(-c2ccc(-c3ccc(Oc4c(F)cccc4C(=O)O)c(F)c3)cc2)c1NC(=O)O[C@H](C)c1ccccc1` [IT374] are 0.05 to 0.5 µM, less than 0.05 µM and 0.05 to 0.5 µM.
Regarding `C[C@@H](OC(=O)Nc1c(-c2ccc(-c3ccc(C4(C(=O)OC5OC(C(=O)O)C(O)C(O)C5O)CC4)cc3)cc2)cnn1C)c1ccccc1` (stereo partly drawn) [IT105], the EC50 in test [1] and in test [2] was 0.05 to 0.5 µM in each case. The half-inhibitory concentration (IC50) in test [3] lay in the range of 0.05 to 0.5 µM.
